Data as given in patent US20050288347A1, “Certain triazole-based compounds, compositions, and uses thereof” (priority 2004, published 2005).
Entries after “also recorded” stand apart in the source; their conditions may differ.

What follows are molecules tested against protein kinase (assay: HTS ATP-utilizing enzyme assay, off-chip mobility-shift format (Caliper HTS 250)). Conditions: kinase(s) for which the compound exhibits protein kinase inhibitory activity; test compound 10 μM; active = greater than three-sigma from the mean activity of inactive compounds.
Format: biochemical, human
Procedure, shortened: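 Kinase reactions ran 2.5 h at 20 to 22 °C with test compound at 10 μM, in a HEPES pH 7.5 master buffer containing Triton X-100 and BSA. Peptide substrate and phosphorylated product separated by mobility shift; inhibition normalized to DMSO (0%) and EDTA (100%) controls, with three-sigma thresholds for hits.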

SMILES | Kinase
COc1ccc(-n2c(S)nnc2-c2ccc(O)cc2)cc1 [4-(5-mercapto-4-(4-methoxyphenyl)-4H-1,2,4-triazol-3-yl)phenol] | CDK5 and GSK3-β and GSK3-α
Cn1c(S)nnc1-c1ccc(O)cc1 [4-(5-mercapto-4-methyl-4H-1,2,4-triazol-3-yl)phenol] | CDK5 and CDK2-cyclinA and CDK2-cyclinE
Oc1ccc(-c2nnc(S)n2-c2ccccc2)cc1 [4-(5-mercapto-4-phenyl-4H-1,2,4-triazol-3-yl)phenol] | CDK5 and GSK3-α and CDK2-cyclinA
C=CCn1c(S)nnc1-c1cc(OC)c(OC)c(OC)c1 [4-allyl-5-(3,4,5-trimethoxyphenyl)-4H-1,2,4-triazole-3-thiol] | GSK3-β; also recorded: GSK3-α
C=CCn1c(S)nnc1COc1ccc(Cl)cc1 [4-allyl-5-((4-chlorophenoxy)methyl)-4H-1,2,4-triazole-3-thiol] | GSK3-α
COc1ccccc1-c1nnc(S)n1Cc1ccccc1 [4-benzyl-5-(2-methoxyphenyl)-4H-1,2,4-triazole-3-thiol] | AURORA-A

Same assay, conditions: test compound 10 μM; active = activity greater than three-sigma from the mean of the predominately inactive population for that enzyme

SMILES | protein kinase against which the compound exhibits inhibitory activity (Table 3)
Oc1ccc(-c2nnc(SCc3ccccc3)n2Cc2ccco2)cc1 [4-(5-(benzylthio)-4-(furan-2-ylmethyl)-4H-1,2,4-triazol-3-yl)phenol] | GSK3-β and GSK3-α and MSK2
CSc1nnc(-c2ccc(O)cc2)n1-c1ccccc1 [4-(5-(methylthio)-4-phenyl-4H-1,2,4-triazol-3-yl)phenol] | GSK3-β; also recorded: GSK3-α; also recorded: CDK2-cyclinA
O=C(O)c1ccc(CSc2nnc(-c3cccc(Cl)c3)[nH]2)cc1 [4-((5-(3-chlorophenyl)-4H-1,2,4-triazol-3-ylthio)methyl)benzoic acid] | FLT-3; also recorded: DYRK2; also recorded: AURORA-A
FC(F)(F)Oc1ccc(-c2nnc(SCc3ccncc3)[nH]2)cc1 [4-((5-(4-(trifluoromethoxy)phenyl)-4H-1,2,4-triazol-3-ylthio)methyl)pyridine] | FLT-3; also recorded: c-TAK1; also recorded: GSK3-β
COc1ccc(-c2nnc(SCc3ccncc3)[nH]2)cc1 [4-((5-(4-methoxyphenyl)-4H-1,2,4-triazol-3-ylthio)methyl)pyridine] | FLT-3; also recorded: DYRK2; also recorded: GSK3-α
O=[N+]([O-])c1ccc(-c2nnc(SCc3ccncc3)[nH]2)cc1 [4-((5-(4-nitrophenyl)-4H-1,2,4-triazol-3-ylthio)methyl)pyridine] | FLT-3; also recorded: GSK3-β; also recorded: GSK3-α
O=C(O)c1ccc(CSc2nnc(-c3cccs3)[nH]2)cc1 [4-((5-(thiophen-2-yl)-4H-1,2,4-triazol-3-ylthio)methyl)benzoic acid] | DYRK2; also recorded: AURORA-A; also recorded: FLT-3
c1csc(-c2nnc(SCc3ccncc3)[nH]2)c1 [4-((5-(thiophen-2-yl)-4H-1,2,4-triazol-3-ylthio)methyl)pyridine] | DYRK2; also recorded: AURORA-A; also recorded: FLT-3
Cc1cccc(-c2nnc(SCc3ccc(C(=O)O)cc3)[nH]2)c1 [4-((5-m-tolyl-4H-1,2,4-triazol-3-ylthio)methyl)benzoic acid] | FLT-3; also recorded: DYRK2; also recorded: AURORA-A
CC(C)=CCSc1nnc(C)n1Cc1ccco1 [4-(furan-2-ylmethyl)-3-methyl-5-(3-methylbut-2-enylthio)-4H-1,2,4-triazole] | GSK3-β; also recorded: GSK3-α
C=CCn1c(CCC2CCCC2)nnc1SCC=C(C)C [4-allyl-3-(2-cyclopentylethyl)-5-(3-methylbut-2-enylthio)-4H-1,2,4-triazole] | DYRK2
CSc1nnc(COc2ccccc2C)n1Cc1ccccc1 [4-benzyl-3-(methylthio)-5-(o-tolyloxymethyl)-4H-1,2,4-triazole] | MSK2

Continued, values first:

protein kinase against which the compound exhibits inhibitory activity (Table 3) | SMILES
AURORA-A and MSK1 | Cn1c(SCc2ccc(Cl)cc2)nnc1-c1ccncc1 [4-(5-(4-chlorobenzylthio)-4-methyl-4H-1,2,4-triazol-3-yl)pyridine]
AURORA-A and PKA and MSK1 | Clc1ccc(CSc2nnc(-c3ccncc3)n2-c2ccccc2)cc1 [4-(5-(4-chlorobenzylthio)-4-phenyl-4H-1,2,4-triazol-3-yl)pyridine]
AURORA-A | Cc1ccc(CSc2nnc(-c3ccncc3)n2-c2ccccc2)cc1 [4-(5-(4-methylbenzylthio)-4-phenyl-4H-1,2,4-triazol-3-yl)pyridine]
MAPKAPK-2 | CCn1c(SCc2ccc(C(C)(C)C)cc2)nnc1-c1ccncc1 [4-(5-(4-tert-butylbenzylthio)-4-ethyl-4H-1,2,4-triazol-3-yl)pyridine]
GSK3-β and AURORA-A and CDK1 | Clc1cccc(-n2c(SCc3ccccc3)nnc2-c2ccncc2)c1 [4-(5-(benzylthio)-4-(3-chlorophenyl)-4H-1,2,4-triazol-3-yl)pyridine]
GSK3-β and GSK3-α and MSK1 | Cn1c(SCc2ccccc2)nnc1-c1ccc(O)cc1 [4-(5-(benzylthio)-4-methyl-4H-1,2,4-triazol-3-yl)phenol]
AURORA-A | Cn1c(SCc2ccccc2)nnc1-c1ccncc1 [4-(5-(benzylthio)-4-methyl-4H-1,2,4-triazol-3-yl)pyridine]
AURORA-A | c1ccc(CSc2nnc(-c3ccncc3)n2-c2ccccc2)cc1 [4-(5-(benzylthio)-4-phenyl-4H-1,2,4-triazol-3-yl)pyridine]
AURORA-A | CCSc1nnc(-c2ccncc2)n1CCCOC [4-(5-(ethylthio)-4-(3-methoxypropyl)-4H-1,2,4-triazol-3-yl)pyridine]
AURORA-A | CCC(c1ccccc1)c1nnc(SCc2ccc(C(=O)O)cc2)[nH]1 (stereo not drawn) [4-((5-(1-phenylpropyl)-4H-1,2,4-triazol-3-ylthio)methyl)benzoic acid]
FLT-3; also recorded: GSK3-β | Clc1ccc(-c2nnc(SCc3ccncc3)[nH]2)cc1Cl [4-((5-(3,4-dichlorophenyl)-4H-1,2,4-triazol-3-ylthio)methyl)pyridine]
AURORA-A; also recorded: DYRK2 | O=C(O)c1ccc(CSc2nnc(-c3cccnc3)[nH]2)cc1 [4-((5-(pyridin-3-yl)-4H-1,2,4-triazol-3-ylthio)methyl)benzoic acid]
GSK3-α | CC(C)(C)c1nnc(SCc2ccncc2)[nH]1 [4-((5-tert-butyl-4H-1,2,4-triazol-3-ylthio)methyl)pyridine]
GSK3-β; also recorded: GSK3-α | CCc1nnc(SCc2ccccc2)n1Cc1ccc2c(c1)OCO2 [4-(benzo[d][1,3]dioxol-5-ylmethyl)-3-(benzylthio)-5-ethyl-4H-1,2,4-triazole]
GSK3-β; also recorded: GSK3-α | Cc1nnc(SCc2ccccc2)n1Cc1ccccc1 [4-benzyl-3-(benzylthio)-5-methyl-4H-1,2,4-triazole]
